The results in this text go back to patent US6395731B1, “Heterocyclic derivatives which inhibit Factor Xa” (Astrazeneca AB, priority 1998, dated 2002).

Where a name gives a salt, the structure may show the parent alone.

The compound `Nc1nc(-c2ccc(C(=O)N3CCN(S(=O)(=O)c4ccc5cc(Br)ccc5c4)CC3)cc2)c[nH]1` (as salt: salt) [Example 4, 1-(6-Bromonaphth-2-ylsulphonyl)-4-[4-(2-aminoimidazol-4-yl)benzoyl]piperazine] gave a melting point of 274 to 275 °C. The figure for `Cc1nc(-c2ccc(C(=O)N3CCN(S(=O)(=O)c4ccc5cc(Br)ccc5c4)CC3)cc2)c[nH]1` [Example 3, 1-(6-Bromonaphth-2-ylsulphonyl)-4-[4-(2-methylimidazol-4-yl)benzoyl]piperazine] is 215 to 216 °C.
